Assay results taken from patent US11912699B2, “Tau-protein targeting compounds and associated” (Arvinas Operations, Inc., priority 2019, dated 2024).
Read-outs that look alike come from different tables or passages of the source. Each block holds one compound with its values, some of them ahead of it.

Tests used:
[1] = system: seeding competent tau species (MC1-positive seeded conformational tau) in ChoK1-Tau P301L cells; assay: Tg2508 ex-vivo seeding of P301L CHO cells, MC1 high content image analysis; type: cell-based, Tg2508 mice; details: single parenteral treatment 15 mpk, 24 hours
Protocol: FIGS. 4A, 4B, and 4C. […] Briefly, ChoK1-Tau P301L cells were treated with K18 tau preformed fibrils (PFFs) or extracts from Tg2508 brain samples. Seeded conformational tau species were detected by MC1 antibody positivity and quantified as MC1 spot average intensity per cell on the Image Express high content platform.

[2] = target: T1, seeded conformational tau (MC1) (Homo sapiens, UniProt P10636, P618L); assay: Tg2508 ex-vivo tau seeding assay in ChoK1-Tau P301L cells (MC1 high content imaging); type: cell-based, mice; details: single parenteral treatment 15 mpk, 24 hours; MC1 spot intensity in ChoK1-Tau P301L cells
T1 construct: tissue Taconic; host or cells: cortex / hippocampus of Tg2508 transgenic mice, sarkosyl-insoluble fraction or brain extract
Protocol: FIGS. 4A, 4B, and 4C. Briefly, ChoK1-Tau P301L cells were treated with K18 tau preformed fibrils (PFFs) or extracts from Tg2508 brain samples (as described in Materials and Methods; PFF generation modified from Holmes et al. PNAS. 2014. Proteopathic tau seeding predicts tauopathy in vivo. Oct. 111 (41) E4376-85). Seeded conformational tau species are detected by MC1 antibody positivity and quantified as MC1 spot average intensity per cell on the Image Express™ high content platform.
In vitro tau Seeding Assay for FIGS. 4A, 4B, and 4C. Tau P301L T-Rex CHO Cells were plated on BioCoat Collagen 96 well microplates that were also poly-D-lysine coated. Media was removed, cells were washed with DPBS, trypsinized and plated at 50,000 cells per mL with Doxycycline […] and no doxycycline control for 24 hours. […]

Tau P301L = target: T2, Tau P301L (Homo sapiens, UniProt P10636, P618L); assay: In vitro tau degradation assay in CHOK1 Tau P301L cells (sarkosyl insoluble tau, WES); type: cell-based; details: for remaining activity at 1 µM: CHO-K1, relative to DMSO doxycycline control, read-out: Tau Protein Degradation effect at 1 μM
T2 construct: expressed in transfected cells
Summary of the method: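 T-Rex CHOK1 clone D1 with doxycycline-inducible (1 μg/ml) Tau P301L treated 48 h with compound at 1 μM, doxycycline removed for the final 24 h. Sarkosyl-insoluble tau quantified by WES capillary electrophoresis with Tau1 antibody, expressed relative to DMSO doxycycline control and binned as ≤50% or >50% remaining.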

P301L tau = target: T3, P301L tau (Homo sapiens, UniProt P10636, P618L); assay: Tau degradation in doxycycline-induced ChoK1-Tau P301L clone D1 cells; type: cell-based
T3 construct: expressed in transfected cells
Protocol: FIGS. 2A, 2B, and 2C. Tau targeting bifunctional molecules are potent P301L tau degraders in vitro, which depends upon both binding to the tau binding moiety and the E3 ligase binding moiety (ULM). (2A) Tau expression was induced by addition (+) of doxycycline (1 μg/ml) to ChoK1-Tau P301L clone D1 for 24 hours followed by a 24 hour doxycycline washout period where only bifunctional molecule was present.

[3] = 10-fold molar excess pomalidomide
[4] = similar competition (10-fold molar excess) with flortaucipir
[5] = remaining tau protein in sarkosyl insoluble pellet, CHOK1 Tau P301L cells treated 48 hours with test compound at 1 μM, doxycycline removed for the last 24 hours

T3 sequence (P10636 1-441 isoform P10636-8 P301L): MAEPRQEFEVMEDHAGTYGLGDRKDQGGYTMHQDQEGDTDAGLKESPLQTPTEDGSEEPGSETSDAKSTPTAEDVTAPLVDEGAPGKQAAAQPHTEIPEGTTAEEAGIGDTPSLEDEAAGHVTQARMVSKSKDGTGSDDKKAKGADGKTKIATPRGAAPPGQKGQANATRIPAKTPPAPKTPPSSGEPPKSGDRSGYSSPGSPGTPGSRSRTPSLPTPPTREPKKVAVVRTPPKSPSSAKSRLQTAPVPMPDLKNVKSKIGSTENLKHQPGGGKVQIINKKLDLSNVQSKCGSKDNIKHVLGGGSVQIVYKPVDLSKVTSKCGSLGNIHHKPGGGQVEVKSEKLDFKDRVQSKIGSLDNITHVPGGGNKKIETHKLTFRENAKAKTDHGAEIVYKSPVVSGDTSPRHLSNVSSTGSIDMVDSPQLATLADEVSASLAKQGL
T2 sequence (P10636 1-441 isoform P10636-8 P301L): as above
T1 sequence (P10636 1-383 isoform P10636-6 P243L): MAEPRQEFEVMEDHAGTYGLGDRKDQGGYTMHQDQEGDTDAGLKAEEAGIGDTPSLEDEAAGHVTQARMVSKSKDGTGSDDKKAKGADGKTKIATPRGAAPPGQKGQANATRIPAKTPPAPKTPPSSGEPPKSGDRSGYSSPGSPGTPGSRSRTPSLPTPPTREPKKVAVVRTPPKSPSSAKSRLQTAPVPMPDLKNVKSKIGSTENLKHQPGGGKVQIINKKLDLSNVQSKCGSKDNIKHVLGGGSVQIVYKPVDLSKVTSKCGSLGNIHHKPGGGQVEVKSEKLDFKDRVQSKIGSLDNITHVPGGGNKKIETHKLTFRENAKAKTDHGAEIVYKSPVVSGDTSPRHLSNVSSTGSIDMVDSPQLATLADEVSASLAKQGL

seeding competent tau species in Tg2508 cortical brain extracts [2]: effectively degraded | tau degradation under competition with E3 ligase ligand (Tau P301L; [3]): completely inhibited | DC50 (Tau P301L; ChoK1-Tau P301L clone D1, doxycycline 1 μg/ml, 250, 125, 50 nM): < 50 nM | tau degradation under competition with tau warhead ligand (Tau P301L; [4]): Partial inhibition | tau degradation under competition with E3 ligase ligand pomalidomide (P301L tau; [3]): completely inhibited | DC50 (P301L tau; ChoK1-Tau P301L clone D1, 24 h doxycycline (1 μg/ml) induction, then 24 h washout with only compound present, vs 0.1% DMSO): < 50 nM | tau degradation under competition with tau warhead ligand flortaucipir (P301L tau; [4]): Partial inhibition
SMILES: Cn1c2ccncc2c2ccc(-c3ccc(O[C@H]4C[C@H](OC5CCN(CCCCCOc6ccc7c(c6)C(=O)N(C6CCC(=O)NC6=O)C7=O)CC5)C4)nc3)cc21 (stereo partly drawn) [Compound 82]
seeding competent tau species in Tg2508 cortical brain extracts (MC1 spot average intensity per cell) [1]: effectively degraded | degradation of tau compared to 0.1% DMSO control (Tau P301L; ChoK1-Tau P301L clone D1, 250 nM, 125 nM or 50 nM): concentration-dependent degradation of tau | degradation of tau (P301L tau; 250 nM, 125 nM or 50 nM, ChoK1-Tau P301L clone D1, vs 0.1% DMSO): concentration-dependent degradation of tau

remaining activity at 1 µM (Tau P301L; [5]): > 50%
SMILES: N#Cc1cc(-c2ccc3c4cnccc4n(C(F)F)c3c2)cnc1N1CCC(CCN2CCN(c3ccc4c(c3)CN(C3CCC(=O)NC3=O)C4=O)CC2)CC1 (stereo not drawn) [Compound 475, 5-(5-(difluoromethyl)-5H-pyrido[4,3-b]indol-7-yl)-2-(4-(2-(4-(2-(2,6-dioxopiperidin-3-yl)-1-oxoisoindolin-5-yl)piperazin-1-yl)ethyl)piperidin-1-yl)nicotinonitrile]

remaining activity at 1 µM (Tau P301L; [5]): > 50%
SMILES: Cn1c2ccncc2c2ccc(-c3ccc(OCCOCCOCCOc4ccc5c(c4)C(=O)N(C4CCC(=O)NC4=O)C5=O)nc3)nc21 (stereo not drawn) [Compound 419, 2-(2,6-dioxopiperidin-3-yl)-5-(2-(2-(2-((5-(9-methyl-9H-pyrrolo[2,3-b:4,5-c′]dipyridin-2-yl)pyridin-2-yl)oxy)ethoxy)ethoxy)ethoxy)isoindoline-1,3-dione]

remaining activity at 1 µM (Tau P301L; CHOK1 Tau P301L cells, remaining tau in sarkosyl insoluble pellet, 48 hours with test compound at 1 μM, doxycycline removed for last 24 hours): < 50%
SMILES: O=C1CCC(N2C(=O)c3cc(F)c(N4CCN(CCC5CCN(c6ncc(-c7c(F)cc8c9cnccc9n(CC(F)(F)F)c8c7F)cn6)CC5)CC4)cc3C2=O)C(=O)N1 (stereo not drawn) [Compound 645, 5-(4-(2-(1-(5-(6,8-difluoro-5-(2,2,2-trifluoroethyl)-5H-pyrido[4,3-b]indol-7-yl)pyrimidin-2-yl)piperidin-4-yl)ethyl)piperazin-1-yl)-2-(2,6-dioxopiperidin-3-yl)-6-fluoroisoindoline-1,3-dione]

Second part, the compound before the results:

SMILES: CC(C)N(CCCCOc1ccc2c(c1)C(=O)N(C1CCC(=O)NC1=O)C2=O)[C@H]1CC[C@H](O[C@H]2C[C@H](Oc3ccc(-c4ccc5c6cnccc6n(C)c5c4)cn3)C2)CC1 (stereo partly drawn) [Compound 436, 2-(2,6-dioxopiperidin-3-yl)-5-(4-(isopropyl((1R,4r)-4-((1r,3R)-3-((5-(5-methyl-5H-pyrido[4,3-b]indol-7-yl)pyridin-2-yl)oxy)cyclobutoxy)cyclohexyl)amino)butoxy)isoindoline-1,3-dione]
remaining activity at 1 µM (Tau P301L; [5]): < 50%

SMILES: Cc1ncsc1-c1ccc([C@H](C)NC(=O)[C@@H]2C[C@@H](O)CN2C(=O)[C@@H](NC(=O)COCCOCCOCCOCCOc2ccc3cc(-n4ccc5ccncc54)ncc3c2)C(C)(C)C)cc1 [Compound 375, (2S,4R)-1-((S)-17-((3-(1H-pyrrolo[2,3-c]pyridin-1-yl)isoquinolin-7-yl)oxy)-2-(tert-butyl)-4-oxo-6,9,12,15-tetraoxa-3-azaheptadecanoyl)-4-hydroxy-N-((S)-1-(4-(4-methylthiazol-5-yl)phenyl)ethyl) pyrrolidine-2-carboxamide]
remaining activity at 1 µM (Tau P301L; [5]): > 50%

SMILES: Cc1ncsc1-c1ccc([C@H](C)NC(=O)[C@@H]2C[C@@H](O)CN2C(=O)[C@@H](NC(=O)COCCOCCOCCOCCOCCOc2cc3ccn(-c4cc5c(N)cccc5cn4)c3cn2)C(C)(C)C)cc1 [Compound 351, (2S,4R)-1-((S)-20-((1-(5-aminoisoquinolin-3-yl)-1H-pyrrolo[2,3-c]pyridin-5-yl)oxy)-2-(tert-butyl)-4-oxo-6,9,12,15,18-pentaoxa-3-azaicosanoyl)-4-hydroxy-N-((S)-1-(4-(4-methylthiazol-5-yl)phenyl)ethyl) pyrrolidine-2-carboxamide]
remaining activity at 1 µM (Tau P301L; [5]): > 50%

SMILES: Cc1ncsc1-c1ccc([C@H](C)NC(=O)[C@@H]2C[C@@H](O)CN2C(=O)[C@@H](NC(=O)CN2CCN(CCN3CCC(O[C@H]4C[C@H](Oc5ccc(-c6ccc7c8cnccc8n(C)c7c6)cn5)C4)CC3)CC2)C(C)(C)C)cc1 [Compound 389, (2S,4R)-1-((S)-3,3-dimethyl-2-(2-(4-(2-(4-((1r,3r)-3-((5-(5-methyl-5H-pyrido[4,3-b]indol-7-yl)pyridin-2-yl)oxy)cyclobutoxy)piperidin-1-yl)ethyl)piperazin-1-yl)acetamido)butanoyl)-4-hydroxy-N-((S)-1-(4-(4-methylthiazol-5-yl)phenyl)ethyl) pyrrolidine-2-carboxamide]
remaining activity at 1 µM (Tau P301L; [5]): < 50%

SMILES: Cc1ncsc1-c1ccc([C@H](C)NC(=O)[C@@H]2C[C@@H](O)CN2C(=O)[C@@H](c2cc(OCCN3CCN(CCN4CCC(O[C@H]5C[C@H](Oc6ccc(-c7ccc8c9cnccc9n(C)c8c7)cn6)C5)CC4)CC3)no2)C(C)C)cc1 [Compound 372, (2S,4R)-4-hydroxy-1-((R)-3-methyl-2-(3-(2-(4-(2-(4-((1r,3r)-3-((5-(5-methyl-5H-pyrido[4,3-b]indol-7-yl)pyridin-2-yl)oxy)cyclobutoxy)piperidin-1-yl)ethyl)piperazin-1-yl)ethoxy)isoxazol-5-yl)butanoyl)-N-((S)-1-(4-(4-methylthiazol-5-yl)phenyl)ethyl) pyrrolidine-2-carboxamide]
remaining activity at 1 µM (Tau P301L; [5]): > 50%
